Patent US20230295162A1 (EÖTVÖS LORÁND TUDOMÁNYEGYETEM, priority 2020, published 2023)
pIC50: −log10 of the molar value.

What was measured:
[1] = test system: Panc1 pancreatic cancer cell line; experiment: CellTiter-Glo IC50 (Example 19); assay type: cell-based; conditions: Homo sapiens, PANC-1, 72 h
Description: Some representative imipridones and ONC212 as reference were further tested on the following human malignant cell lines: PC3 and LNCap (prostate carcinoma); BxPC3, MiaPaCa2 and Panc1 (pancreatic cancer); A549, HCC827, H1993 and H520 (lung carcinoma); MDA-MB-453 and MDA-MB-231 (breast cancer) (see Table 2 and FIGS. 1-11).
(§1) Cell lines were maintained according to the instructions provided by ATCC (https://www.lgcstandards-atcc.org/) in a 5% CO2 humidified incubator maintained at 37° C. temperature. Effects of compounds on cell viability were measured via CellTiter-Glo® luminescent cell viability assay (Promega, Madison, WI, USA) Cells were plated at 1000 cells/well onto a flat-bottomed, white 96 well plate (BRANDplates, cat. no.: 781965). […] After the treatment, medium was removed and CellTiter-Glo® reagent was added. The luminescence signal was recorded using a microplate reader (BioTek Synergy 2 Multi-Mode Reader, BioTek, Winooski, VT, USA).
(§2) Cell viability data (% of untreated control cells) was evaluated with Microsoft Excel. Dose-response curves (using a non-linear regression model, log (inhibitor) vs response, variable slope) were generated and IC50 values were determined using Graph Pad Prism 5.02 software (GraphPad Software, San Diego, CA, USA).

H2228 cell line = experiment: Additional in vitro IC50 tests (Table 3); assay type: cell-based; conditions: Homo sapiens, NCI-H2228
Description: as §1, §2

Detroit 562 cell line = experiment: Additional in vitro IC50 tests (Table 3); assay type: cell-based; conditions: Homo sapiens
Description: as §1, §2

EBC-1 cell line = experiment: Additional in vitro IC50 tests (Table 3); assay type: cell-based; conditions: Homo sapiens
Description: as §1, §2

Fadu cell line = experiment: Additional in vitro IC50 tests (Table 3); assay type: cell-based; conditions: Homo sapiens
Description: as §1, §2

SCC-25 cell line = experiment: Additional in vitro IC50 tests (Table 3); assay type: cell-based; conditions: Homo sapiens
Description: as §1, §2

Row | melting point | pIC50 [1] | pIC50 (H2228 cell line) | pIC50 (Detroit 562 cell line) | pIC50 (EBC-1 cell line) | pIC50 (Fadu cell line) | pIC50 (SCC-25 cell line) | Structure (SMILES)
1 | 204.8 °C | – | – | – | – | – | – | O=C1C2=C(CCN(Cc3cc(F)cc(F)c3)C2)N2CCN=C2N1Cc1cccc(Cl)c1 [I/125, 4-(3-Chlorobenzyl)-7-(3,5-difluorobenzyl)-2,4,6,7,8,9-hexahydroimidazo[1,2-a]pyrido[3,4-e]pyrimidin-5(1H)-one]
2 | 129.5 °C | 6.52 | 6.98 | 7.08 | 7.54 | 7.66 | 7.05 | NCc1cccc(CN2C(=O)C3=C(CCN(Cc4cc(F)cc(F)c4)C3)N3CCN=C23)c1 [I/61, 4-(3-(Aminomethyl)benzyl)-7-(3,5-difluorobenzyl)-2,4,6,7,8,9-hexahydroimidazo[1,2-a]pyrido[3,4-e]pyrimidin-5(1H)-one]
3 | 76 °C | 7.82 | – | – | – | – | – | O=C1C2=C(CCN(Cc3cc(F)cc(F)c3)C2)N2CCN=C2N1[C@@H](CO)c1ccc(F)cc1 [I/129 (R)]
